Test results taken from US20090062403A1, “Compositions and Methods for Treatment of Disorders of Protein Aggregation” (priority 2004, published 2009).
“Also recorded” adds a separate entry of the source. Where two headings read alike, the source gives them in different places. Marks after values point to notes of the source that are not given here.

Key:
TgCRND8 mice [1] = assay: Morris Water Maze spatial reference memory test in TgCRND8 mice; assay type: in vivo, mouse; details: for Spatial learning performance (Morris Water Maze) compared to untreated TgCRND8 littermates: oral treatment for 28 days from 5 months of age, tested at 6 months
Aβ oligomers [2] = details: positive control, previously shown; cited from earlier work
TgCRND8 mice [3] = assay: Pilot in vivo studies; parameters: species or system mouse; details: data not shown
Excerpt: The TgCRND8 mice and non-transgenic littermates were assigned to sex- and age-matched cohorts that were then used to test the effectiveness of the cyclohexanehexol stereoisomers as a therapeutic (with treatment delayed until five months of age and continued for one month until six months of age). […] The endpoints were cognitive function, brain Aβ levels, and neuropathology. […] Over the course of these experiments, observers were unaware of genotype or treatment group.

Aβ = biological target: T1, Aβ (Homo sapiens, UniProt P05067); details: reference [16]; cited from earlier work
T1 construct: neurotoxic oligomeric/protofibrillar aggregates of amyloid β-peptide (Aβ)

7PA2 cells = assay type: cell-based, Chinese Hamster
Procedure: (§1) Preparation of conditioned media: CHO— or 7PA2 cells were grown to ˜90% confluency. The cells were washed 1× in serum-free DMEM, then incubated overnight (˜15 hrs) in 4 ml/10 cm dish in serum-free DMEM, pen/strep, 1-glutamine with/without AZD-103. The following day, the conditioned media (CM) was collected, spun at 1000×g and treated with complete protease inhibitors (in mg/ml 1 leupeptin, 1 pepstatin, 0.1 aprotinin, 40 EDTA, and 2 mM 1/10 phenantroline) for biochemistry experiments or cell culture compatible protease inhibitors (Sigma P1860 1:1000) for electrophysiology experiments. The CM was stored at −80° C. until sufficient volumes were collected to complete a “batch”—typically ˜300 ml. […] The resulting concentrate was pooled, aliquoted in 1 ml fractions, and stored at −80° C. […] Therefore, for any given set of experiments (i.e. dose response curve, time curve, etc), a single batch is prepared and compared to 7PA2 alone within that batch.

synaptophysin = assay: Synaptophysin quantification in CA1 region of the hippocampus; assay type: in vivo, mouse; details: TgCRND8 mice; for increase of synaptophysin reactive boutons and cell bodies: vs untreated
Procedure: Synaptophysin immunohistochemical staining was performed on 3 evenly spaced saggital sections of paraformaldehyde-fixed treated and control mice. Sections were immunolabelled for synaptophysin with anti-synaptophysin IgG (1:40; Roche, Laval, PQ). Digital images were captured and analyzed as described above. Within each section, three randomly chosen 100 μm^2 areas of the CA1 region of the hippocampus were counted for synaptophysin reactive cell bodies and boutons. The results are expressed as the mean of the number of reactive bodies and boutons per 100 μm^2 [48, 49].

cerebral amyloid plaques = assay: Cerebral amyloid burden (plaque number, area, size by immunohistochemistry); assay type: in vivo, mouse; details: TgCRND8 mice
Procedure: Mice. […] This initial dosage was chosen based upon the dosage of myo-cyclohexanehexol (6-18 grams/day/adult or 86-257 mg/Kg/day) that is typically administered to human patients for various psychiatric disorders. […] A cohort of animals (n=10 mice per treatment arm) entered the study at five months of age, and outcomes were then analyzed after one month of treatment. The body weight, coat characteristics and in cage behaviour were monitored. Mannitol was used as a negative control for potential alterations in caloric intake. All experiments were performed according to the Canadian Council on Animal Care guidelines. Behavioural tests: Morris Water Maze testing was performed as previously described. After non-spatial pre-training, mice underwent place discrimination training for 5 days with 4-trials per day, followed by a cued visible platform to rule out general motivational, learning deficits and motor problems, and a probe trial to evaluate memory. […] Open field test for motor activity was preformed as described previously. Duration of walking, pausing and grooming were analyzed as indices of spontaneous locomotor activity. Sensorimotor function was examined with an Economex™ accelerating rotarod (Columbus Instruments, Columbus, Ohio), as described elsewhere. The rod was set to accelerate at a rate of 0.2 r.p.m./s, from an initial, constant speed of 5 r.p.m. Latency to fall was recorded in four daily trials, conducted at 30 min intervals. All mice were trained for seven days before testing. The test day performance score for each animal was obtained by summing its latency to fall over the four trials Cerebral amyloid burden. Brains were removed and one hemisphere was fixed in 4% paraformaldehyde and embedded in paraffin wax in the mid sagittal plane. To generate sets of systematic uniform random sections, 5 μm serial sections were collected across the entire hemisphere. Sets of sections at 50 μm intervals were used for analyses (10-14 sections/set). Plaques were identified after antigen retrieval with formic acid, and incubation with primary anti-Aβ antibody (Dako M-0872), followed by secondary antibody (Dako StreptABCcomplex/horseradish kit). End products were visualized with DAB and were counter-stained with luxol fast blue. Amyloid plaque burden was assessed with LecoIA-3001 image analysis software interfaced with Leica microscope and Hitachi KP-M1U CCD video camera. Openlab imaging software (Improvision, Lexington, Mass.) was then used to convert micrographs to binary images for plaque number and plaque area determinations. Vascular amyloid burden was defined as amyloid originating from or surrounding blood vessels and was analysed similarly. Plasma and Cerebral Aβ Content. Hemi-brain samples were homogenized in a buffered sucrose solution, followed by either 0.4% diethylamine/100 mM NaCl for soluble Aβ levels or cold formic acid for the isolation of total Aβ. After neutralization, the samples were diluted and analyzed for Aβ40 and Aβ42 using commercially available kits (BIOSOURCE International). Each hemisphere was analyzed in triplicate and the mean values±SEM reported. Western blot analyses were performed on all fractions using urea gels for Aβ species analyses. Aβ was detected using 6E10 (BIOSOURCE International) and Enhanced Chemiluminenscence (Amersham). Gliosis Quantitation. Five randomly selected, evenly spaced, sagittal sections were collected from paraformaldehyde-fixed and frozen hemispheres of treated and control mice. Sections were immunolabelled for astrocytes with anti-rat GFAP IgG2, (Dako; diluted 1:50) and for microglia with anti-rat CD68 IgG2b (Dako; 1:50).

Aβ oligomers [4] = assay type: in vivo; details: rat
Excerpt: The Aβ oligomers are naturally produced by cells transfected with genes that over-produce the amyloid precursor protein (APP). APP is cleaved by secretase(s) and the cells construct the oligomeric Aβ into molecules ranging from 2 to 12 amyloid proteins (2 mer to 12 mer) and secrete it into the culture medium (CM) of cultured cells. In addition, oligomeric Aβ is extracted from brain homogenate taken from transgenic mice (Tg2576) transfected with the Swedish APP mutation. […] These purified oligomeric forms of Aβ, at physiological concentrations relevant to those found in AD, are injected into the rat's lateral ventricle through an indwelling cannula while the animals are awake and moving. Two hours after injection the rats are tested under sensitive cognitive assay.
The assay, the Alternating Lever Cyclic Ratio (ALCR) test, has proven to be much more sensitive than previously published methods for measuring drug effects on cognitive function. In this task, rats must learn a complex sequence of lever-pressing requirements in order to earn food reinforcement in a two-lever experimental chamber. Subjects must alternate between two levers by switching to the other lever after pressing the first lever enough to get food reward. The exact number of presses required for each food reward changes, first increasing from 2 responses per food pellet up to 56 presses per food pellet, then decreasing back to 2 responses per pellet. Intermediate values are based on the quadratic function, x^2−x. One cycle is an entire ascending and descending sequence of these lever press requirements (e.g., 2, 6, 12, 20, 30, 42, 56, 56, 42, 30, 20, 12, 6, and 2 presses per food reward). Six such full cycles are presented during each daily session.
Oligomeric Aβ: Prepared from transfected Chinese Hamster Ovary Cells (7PA2 cells). These cells secrete oligomeric Aβ into the culture medium (CM) at physiological levels. Aβ oligomers was also derived from Tg2576 mouse brain and purified by size exclusion chromatography. Samples of oligomeric Aβ were characterized by Western Blot Analysis. Appropriate control compounds were produced and tested for each active Aβ oligomeric configuration. Rats: Forty (40) rats were trained under ALCR for approximately 3 months until their error rates are stable. Training sessions were conducted 5 days each week. Surgery: After training, all rats received a single 28 ga. cannula that was permanently affixed to the skull, and aimed at the lateral ventricle (divided equally between left and right). Rats were allowed 5 days to recover from surgery. Administration: In vivo administration of AZD103 to rats was performed by dissolving AZD103 into drinking water. Different concentrations were prepared, and the average daily water intake used to target specific average daily dose levels. These dose levels were therefore approximate. Testing: AZD 103 was tested against Aβ oligomers known to disrupt cognitive function. Two general procedures were incorporated. • 1. AZD 103 was incubated with the injectate medium containing Aβ oligomers prior to assessing it's affect on ALCR. Appropriate control injections were included un-incubated (untreated) Aβ oligomers as well as AZD 103 were injected ICV. • 2. Rats were treated with AZD 103, administered in drinking water, for at least 3-4 days prior to testing ICV injection of Aβ oligomers preparations known to affect cognitive function under ALCR.
Treatments were assessed in the following order: • 1. ICV 7PA2 CM alone • 2. ICV AZD 103 alone • 3. ICV ex vivo incubated 7PA2 CM with AZD 103 • All rats received treatments 1-3 in randomized order. • 4. ICV 7PA2 CM after 4 days treatment with PO AZD103 30 mg/kg/day. • 5. ICV 7PA2 CM after 4 days treatment with PO AZD103 100 mg/kg/day. • 6. ICV 7PA2 CM after 4 days treatment with PO AZD103 300 mg/kg/day. • 7. ICV 7PA2 CM after 4 days with no treatment. […]
Target sequence in this assay (P05067 672-711 limits assumed): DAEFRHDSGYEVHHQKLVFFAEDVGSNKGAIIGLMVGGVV

Aβ oligomers [5] = details: rat, in vivo
Target sequence in this assay (P05067 672-711 limits assumed): as above

Aβ oligomers [6] = assay: IP/Western blot of Aβ oligomers in 7PA2 conditioned media; assay type: cell-based, human
Procedure: as §1
Target sequence in this assay (P05067 672-711 limits assumed): as above
IP/Western blots: 8 ml of 7PA2 CM were precleared with […] of protein A agarose for 30 min. The beads were spun down, and […] of the polyclonal anti-Aβ antibody R1282 was added to the supernatant with an additional 40 μl of protein A agarose. These samples were nutated at 4° C. overnight. The beads were washed with a series of buffers 0.5 STEN (sodium chloride, tris, EDTA, NP-40), SDS STEN, STEN. 2× tricine sample buffer was added to the washed beads, which were then boiled, centrifuged, and the resulting supernatant loaded onto 10-20% tricine gels. The proteins were then transferred to nitrocellulose, and probed with the anti-Aβ antibody 6E10.

TgCRND8 mice [7] = details: mouse, in vivo
Procedure: Mice. […] This initial dosage was chosen based upon the dosage of myo-cyclohexanehexol (6-18 grams/day/adult or 86-257 mg/Kg/day) that is typically administered to human patients for various psychiatric disorders. […] A cohort of animals (n=10 mice per treatment arm) entered the study at five months of age, and outcomes were then analyzed after one month of treatment. The body weight, coat characteristics and in cage behaviour were monitored. Mannitol was used as a negative control for potential alterations in caloric intake. All experiments were performed according to the Canadian Council on Animal Care guidelines. Behavioural tests: Morris Water Maze testing was performed as previously described. […] Duration of walking, pausing and grooming were analyzed as indices of spontaneous locomotor activity. […] Latency to fall was recorded in four daily trials, conducted at 30 min intervals. […] Amyloid plaque burden was assessed with LecoIA-3001 image analysis software interfaced with Leica microscope and Hitachi KP-M1U CCD video camera. […] Vascular amyloid burden was defined as amyloid originating from or surrounding blood vessels and was analysed similarly. […] After neutralization, the samples were diluted and analyzed for Aβ40 and Aβ42 using commercially available kits (BIOSOURCE International). Each hemisphere was analyzed in triplicate and the mean values±SEM reported. […] Gliosis Quantitation. […]

Aβ42 = biological target: T2, Aβ42 (Homo sapiens, UniProt P05067); assay: Plasma Aβ42 levels in TgCRND8 mice; assay type: in vivo, mouse; details: TgCRND8 mice following 28 days of therapy at five months of age
T2 construct: from tissue; host or cells: hemi-brain homogenate of TgCRND8 transgenic mice

[8] = 28 day course at 5 months of age, vs untreated
[9] = 28 days treatment, 6 months of age
[10] = ICV AZD103 alone, % of baseline errors
[11] = ICV Aβ oligomers incubated ex vivo with AZD103, % of baseline errors
[12] = ICV oligomers after 4 days p.o. 30 mg/kg/day in drinking water
[13] = ICV oligomers after 4 days p.o. 100 mg/kg/day in drinking water
[14] = ICV oligomers after 4 days p.o. 300 mg/kg/day in drinking water
[15] = 1.25 μM applied to 7PA2 CM (post-cond)

T2 sequence (P05067 672-713 limits assumed): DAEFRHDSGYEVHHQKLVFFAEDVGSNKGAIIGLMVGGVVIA
T1 sequence (P05067 672-713 limits assumed): as above

## OC1C(O)C(O)C(O)C(O)C1O (stereo not drawn) [Epi-cyclohexanehexol, 1,2,3,4,5/6-(epi-) cyclohexanehexol, reference compound]
TgCRND8 mice [1]; TgCRND8 mice
  Spatial learning performance (Morris Water Maze) compared to untreated TgCRND8 littermates: not significantly different from that of untreated TgCRND8 littermates

## Oc1cccc(Nc2ccc(Nc3cccc(O)c3)nn2)c1 [RS0406]
Aβ oligomers [2]
  production of oligomers when added pre-cond: reduces the production of oligomers

## O[C@H]1[C@H](O)[C@@H](O)[C@H](O)[C@@H](O)[C@H]1O [myo-cyclohexanehexol, 1,2,3,5/4,6-(myo-)cyclohexanehexol]
TgCRND8 mice [3]
  benefit in pilot in vivo studies: no significant benefit
Aβ
  effectiveness in prior in vitro studies: only weakly effective

## 1,3,5/2,4,6-(scyllo-) cyclohexanehexol [Scyllo-cyclohexanehexol]
7PA2 cells
  toxicity (7PA2 cells, APPs expression, LTP in CHO— conditions): No direct evidence of AZD-103 toxicity was observed
synaptophysin; delayed treatment study
  number of synaptophysin reactive boutons and cell bodies in the CA1 region: 2625±124 /100 μm^2
  increase of synaptophysin reactive boutons and cell bodies: 150%
synaptophysin; prophylactic study group
  number of synaptophysin reactive boutons and cell bodies in the CA1 region: 2384±232 /100 μm^2
  increase of synaptophysin reactive boutons and cell bodies: 148%
Cerebral amyloid plaques; [8]
  percent area of the brain covered by plaques, reduction: 14±0.5%
  plaque number reduction: 13±0.3%
  plaque size reduction: 16±0.4%
Cerebral amyloid plaques; [9]
  Mean Plaque Size: 336 ± 6* μm^2
  Total Plaque Area: 420027 ± 14986* μm^2
  Total Plaque Count: 1260 ± 27
Aβ oligomers [4]; ICV AZD103 alone
  performance in ALCR when administered without oligomers: no impact on performance
Aβ oligomers [4]; [10]
  Perseveration % errors: 99%
  Switching % errors: 99%
Aβ oligomers [4]; [11]
  Perseveration % errors: 100%
  Switching % errors: 95%
Aβ oligomers [4]; [12]
  Perseveration % errors: 120%
  Switching % errors: 109%
Aβ oligomers [4]; [13]
  Perseveration % errors: 120%
  Switching % errors: 100%
Aβ oligomers [4]; [14]
  Perseveration % errors: 99%
  Switching % errors: 109%
Aβ oligomers [5]
  brain penetrance following oral dosing: sufficiently brain penetrant
Aβ oligomers [6]; [15]
  Aβ dimer on Western blots: unaffected
  Aβ trimer on Western blots: reduced the trimer
Aβ oligomers [6]; dose response, pre-cond and post-cond, all concentrations
  Aβ dimer and trimer levels measured absolutely and normalized to monomer: appeared to reduce dimer and trimer levels
TgCRND8 mice [7]
  grooming or activity in the open field test: no effect on grooming or activity
  sensorimotor function (Rotarod), treated vs untreated TgCRND8 mice: no difference
Aβ42
  Plasma Aβ42 levels: 990 ± 73 pg/mL
TgCRND8 mice [1]; TgCRND8 mice, administered for 2 months, ending at 7 months of age
  effects on cognition and pathology: Sustained effects both on cognition and pathology were observed
TgCRND8 mice [1]; TgCRND8 mice
  Spatial learning performance (Morris Water Maze) compared to untreated TgCRND8 littermates: significantly better behavioural performance compared to untreated TgCRND8 mice; also recorded: significantly better than untreated TgCRND8 littermates
TgCRND8 mice [1]; separate cohort of TgCRND8 mice, data not shown
  % time in target quadrant (probe trial, alternate measure): not statistically different from non-Tg littermates
